# Reference: PubChem BioAssay AID328 (DTP/NCI, 2004)
# Values joined by “and” are separate entries in the source; they are usually repeats but may differ in a detail not shown here. Identical values can stand only once. Toxic doses and inconclusive results are not listed.
# System: BDF1 mice, P388 leukemia ip, median survival T/C
# Experiment: NCI In Vivo Anticancer Drug Screen. Data for tumor model P388 Leukemia (intraperitoneal) in B6D2F1 (BDF1) mice
# Conditions: endpoint: median survival time, higher = longer survival
# Method in brief: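 Steps: implant the tumour, treat one group with compound and another with vehicle, record survival, then divide treated by control.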
# [1] = dose: 50.0 mg/kg/injection, schedule: Q01DX009 (ip), vehicle: Klucel (hydroxypropylcellulose) (HPC)
# [2] = dose: 25.0 mg/kg/injection, schedule: Q01DX009 (ip), vehicle: saline with Tween-80
# [3] = dose: 25.0 mg/kg/injection, schedule: Q04DX003 (ip), vehicle: saline with Tween-80
# [4] = dose: 50.0 mg/kg/injection, schedule: Q04DX003 (ip), vehicle: saline
# [5] = dose: 100.0 mg/kg/injection, schedule: Q04DX003 (ip), vehicle: saline
# [6] = dose: 6.25 mg/kg/injection, schedule: Q01DX009 (ip), vehicle: saline
# [7] = dose: 25.0 mg/kg/injection, schedule: Q01DX009 (ip), vehicle: saline
# [8] = dose: 50.0 mg/kg/injection, schedule: Q01DX009 (ip), vehicle: saline
# [9] = dose: 100.0 mg/kg/injection, schedule: Q01DX009 (ip), vehicle: saline
# [10] = dose: 200.0 mg/kg/injection, schedule: Q01DX009 (ip), vehicle: saline
# [11] = dose: 50.0 mg/kg/injection, schedule: Q01DX009 (ip), vehicle: saline with Tween-80
# [12] = dose: 100.0 mg/kg/injection, schedule: Q01DX009 (ip), vehicle: saline with Tween-80
# [13] = dose: 200.0 mg/kg/injection, schedule: Q01DX009 (ip), vehicle: saline with Tween-80
# [14] = dose: 400.0 mg/kg/injection, schedule: Q01DX009 (ip), vehicle: saline with Tween-80
smiles,measurement,setting,value
CSc1cccc(NC(=O)OCCOc2ccc(Br)cc2)c1,T/C,"dose: 12.5 mg/kg/injection, schedule: Q01DX009 (ip), vehicle: Klucel (hydroxypropylcellulose) (HPC)",109 % of control
same,T/C,"dose: 25.0 mg/kg/injection, schedule: Q01DX009 (ip), vehicle: Klucel (hydroxypropylcellulose) (HPC)",105 % of control
same,T/C,[1],102 % of control
CC(=O)CC(C)=O.CC(=O)CC(C)=O.CC(C)c1ncc[nH]1.O=N[O-].[Co],T/C,"dose: 100.0 mg/kg/injection, schedule: Q04DX002 (ip), vehicle: saline with Tween-80",105 % of control
same,T/C,"dose: 200.0 mg/kg/injection, schedule: Q04DX002 (ip), vehicle: saline with Tween-80",107 % of control
CCC(CCC(C)C1CCC2C3CC=C4CC(O)CCC4(C)C3CCC12C)C(C)C (stereo unspecified) (tested in a mixture with another compound),T/C,"dose: 12.5 mg/kg/injection, schedule: Q#A X020 (ip), vehicle: water",90 % of control
NS(=O)(=O)c1ccc(NC(=O)/C=C/C(=O)O)cc1,T/C,"dose: 100.0 mg/kg/injection, schedule: Q04DX003 (ip), vehicle: saline with Tween-80",100 % of control
same,T/C,"dose: 200.0 mg/kg/injection, schedule: Q04DX003 (ip), vehicle: saline with Tween-80",100 % of control
same,T/C,"dose: 400.0 mg/kg/injection, schedule: Q04DX003 (ip), vehicle: saline with Tween-80",95 % of control
O=NN(CCCl)C(=O)NC1CSCSC1,T/C,"dose: 0.7 mg/kg/injection, schedule: Q01DX009 (ip), vehicle: saline with Tween-80",92 % of control
same,T/C,"dose: 1.7 mg/kg/injection, schedule: Q01DX009 (ip), vehicle: saline with Tween-80",151 % of control
same,T/C,"dose: 2.6 mg/kg/injection, schedule: Q01DX009 (ip), vehicle: saline with Tween-80",159 % of control
same,T/C,"dose: 3.0 mg/kg/injection, schedule: Q04DX003 (ip), vehicle: saline with Tween-80",119 % of control
same,T/C,"dose: 4.0 mg/kg/injection, schedule: Q01DX009 (ip), vehicle: saline with Tween-80",250 % of control and 192 % of control
same,T/C,"dose: 5.0 mg/kg/injection, schedule: Q04DX003 (ip), vehicle: saline with Tween-80",152 % of control
same,T/C,"dose: 6.0 mg/kg/injection, schedule: Q01DX009 (ip), vehicle: saline with Tween-80",230 % of control and 250 % of control
same,T/C,"dose: 8.0 mg/kg/injection, schedule: Q04DX003 (ip), vehicle: saline with Tween-80",185 % of control
same,T/C,"dose: 9.0 mg/kg/injection, schedule: Q01DX009 (ip), vehicle: saline with Tween-80",187 % of control
same,T/C,"dose: 12.0 mg/kg/injection, schedule: Q01DX009 (ip), vehicle: saline with Tween-80",184 % of control
same,T/C,"dose: 12.0 mg/kg/injection, schedule: Q04DX003 (ip), vehicle: saline with Tween-80",272 % of control and 285 % of control
same,T/C,"dose: 18.0 mg/kg/injection, schedule: Q04DX003 (ip), vehicle: saline with Tween-80",204 % of control
same,T/C,[2],90 % of control
same,T/C,[3],240 % of control and 172 % of control
same,T/C,"dose: 37.0 mg/kg/injection, schedule: Q04DX003 (ip), vehicle: saline with Tween-80",272 % of control and 95 % of control
CCCOC(=O)/C=C(\Br)C(=O)OCCC,T/C,"dose: 12.5 mg/kg/injection, schedule: Q04DX003 (ip), vehicle: saline with Tween-80",108 % of control
same,T/C,[3],110 % of control
same,T/C,"dose: 50.0 mg/kg/injection, schedule: Q04DX003 (ip), vehicle: saline with Tween-80",95 % of control
CC(C)(C)OC(=O)CNC(=O)CCl,T/C,[4],100 % of control
same,T/C,[5],100 % of control
same,T/C,"dose: 200.0 mg/kg/injection, schedule: Q04DX003 (ip), vehicle: saline",108 % of control
CC(=N\O)/C(C)=N/O.CC(=N\O)/C(C)=N/O.[Cl][Co][Cl],T/C,[6],90 % of control and 99 % of control
same,T/C,"dose: 12.5 mg/kg/injection, schedule: Q01DX009 (ip), vehicle: saline",100 % of control
same,T/C,[7],99 % of control
same,T/C,[8],94 % of control and 110 % of control
same,T/C,[9],91 % of control and 110 % of control
same,T/C,[10],100 % of control
CNC(=S)N1N=C(C)CC1=O,T/C,"dose: 37.5 mg/kg/injection, schedule: Q01DX009 (ip), vehicle: saline with Tween-80",106 % of control
same,T/C,"dose: 75.0 mg/kg/injection, schedule: Q01DX009 (ip), vehicle: saline with Tween-80",99 % of control
c1cc2c3c(cccc3c1)N1C(=N2)Sc2nc3ccccc3nc21,T/C,[11],89 % of control
same,T/C,[12],89 % of control
same,T/C,[13],95 % of control
O=C1CCCN1.O=C1CCCN1.[Br][Co][Br],T/C,[7],108 % of control
same,T/C,"dose: 44.0 mg/kg/injection, schedule: Q01DX009 (ip), vehicle: saline",109 % of control
same,T/C,[8],113 % of control
same,T/C,[4],105 % of control
same,T/C,[5],111 % of control
O=C(c1ccccc1)C1CN(C2CCCCC2)C1c1ccccc1 (stereo unspecified),T/C,[2],102 % of control
same,T/C,[11],90 % of control
same,T/C,[12],102 % of control
same,T/C,[13],100 % of control
NC(Cc1ccc([N+](=O)[O-])cc1)C(=O)O (stereo unspecified),T/C,[12],105 % of control
same,T/C,[9],100 % of control
same,T/C,"dose: 100.0 mg/kg/injection, schedule: Q04DX003 (ip), vehicle: other",100 % of control
same,T/C,[13],110 % of control
same,T/C,[10],100 % of control
same,T/C,"dose: 200.0 mg/kg/injection, schedule: Q04DX003 (ip), vehicle: other",104 % of control
same,T/C,[14],90 % of control
same,T/C,"dose: 400.0 mg/kg/injection, schedule: Q01DX009 (ip), vehicle: saline",86 % of control
same,T/C,"dose: 400.0 mg/kg/injection, schedule: Q04DX003 (ip), vehicle: other",100 % of control
O=[n+]1c2c(n([O-])c3ccccc31)-c1cccc3cccc-2c13,T/C,"dose: 25.0 mg/kg/injection, schedule: Q01DX010 (ip), vehicle: saline",95 % of control
same,T/C,"dose: 50.0 mg/kg/injection, schedule: Q01DX010 (ip), vehicle: saline",91 % of control
same,T/C,"dose: 100.0 mg/kg/injection, schedule: Q01DX010 (ip), vehicle: saline",91 % of control
Cn1nnn2c(-c3ccccc3)nnc12,T/C,[2],115 % of control
same,T/C,[11],110 % of control
same,T/C,[12],95 % of control
CCCCCCOc1cccc(OCCCC[N+]2(CC)CCCCC2)c1,T/C,[6],108 % of control
CSC(=S)NN=C(C)C,T/C,"dose: 3.13 mg/kg/injection, schedule: Q01DX009 (ip), vehicle: saline with Tween-80",96 % of control
COC(=O)C(Br)c1cccc(OC)c1 (stereo unspecified),T/C,"dose: 58.5 mg/kg/injection, schedule: Q01DX009 (ip), vehicle: saline with Tween-80",100 % of control
same,T/C,"dose: 88.0 mg/kg/injection, schedule: Q01DX009 (ip), vehicle: saline with Tween-80",100 % of control
same,T/C,"dose: 132.0 mg/kg/injection, schedule: Q01DX009 (ip), vehicle: saline with Tween-80",90 % of control
same,T/C,[13],100 % of control and 120 % of control
CCP(=Nc1cc(C(C)(C)C)cc(C(C)(C)C)c1O)(c1ccccc1)c1ccccc1,T/C,[11],96 % of control
same,T/C,[12],91 % of control
same,T/C,[13],89 % of control
O=[N+]([O-])c1ccc(-[n+]2ccccc2)c([N+](=O)[O-])c1,T/C,"dose: 37.5 mg/kg/injection, schedule: Q01DX009 (ip), vehicle: saline",118 % of control
same,T/C,"dose: 75.0 mg/kg/injection, schedule: Q01DX009 (ip), vehicle: saline",122 % of control
same,T/C,"dose: 150.0 mg/kg/injection, schedule: Q01DX009 (ip), vehicle: saline",104 % of control
CCOC(=O)c1cnc(=S)[nH]c1N,T/C,[1],95 % of control
same,T/C,"dose: 50.0 mg/kg/injection, schedule: Q04DX003 (ip), vehicle: Klucel (hydroxypropylcellulose) (HPC)",109 % of control
same,T/C,"dose: 100.0 mg/kg/injection, schedule: Q01DX009 (ip), vehicle: Klucel (hydroxypropylcellulose) (HPC)",100 % of control
same,T/C,"dose: 100.0 mg/kg/injection, schedule: Q04DX003 (ip), vehicle: Klucel (hydroxypropylcellulose) (HPC)",100 % of control
same,T/C,"dose: 200.0 mg/kg/injection, schedule: Q01DX009 (ip), vehicle: Klucel (hydroxypropylcellulose) (HPC)",95 % of control
same,T/C,"dose: 200.0 mg/kg/injection, schedule: Q04DX003 (ip), vehicle: Klucel (hydroxypropylcellulose) (HPC)",109 % of control
COc1ccc(N=C2C(=O)Nc3ccc(Br)cc32)cc1,T/C,[11],100 % of control
same,T/C,[12],105 % of control
same,T/C,[13],104 % of control
same,T/C,[14],104 % of control
O=P(N1CCCCC1)(N1CC1)N1CC1,T/C,"dose: 2.2 mg/kg/injection, schedule: Q01DX009 (ip), vehicle: saline",103 % of control
same,T/C,"dose: 3.3 mg/kg/injection, schedule: Q01DX009 (ip), vehicle: saline",118 % of control
same,T/C,"dose: 7.5 mg/kg/injection, schedule: Q01DX009 (ip), vehicle: saline",185 % of control
same,T/C,"dose: 25.0 mg/kg/injection, schedule: Q04DX003 (ip), vehicle: saline",225 % of control
